The text below walks through data of patent publication US20250115576A1, “THERAPEUTIC COMPOUNDS AND METHODS OF USE THEREOF” (Genentech, Inc., priority 2018, published 2025).

Structures can show the parent of a compound that is named as a salt.

What is called IC50 is the concentration needed to halve the response being measured.

Sequence of hNav1.7 (Q15858 other isoform, or with tags, fused parts or gaps): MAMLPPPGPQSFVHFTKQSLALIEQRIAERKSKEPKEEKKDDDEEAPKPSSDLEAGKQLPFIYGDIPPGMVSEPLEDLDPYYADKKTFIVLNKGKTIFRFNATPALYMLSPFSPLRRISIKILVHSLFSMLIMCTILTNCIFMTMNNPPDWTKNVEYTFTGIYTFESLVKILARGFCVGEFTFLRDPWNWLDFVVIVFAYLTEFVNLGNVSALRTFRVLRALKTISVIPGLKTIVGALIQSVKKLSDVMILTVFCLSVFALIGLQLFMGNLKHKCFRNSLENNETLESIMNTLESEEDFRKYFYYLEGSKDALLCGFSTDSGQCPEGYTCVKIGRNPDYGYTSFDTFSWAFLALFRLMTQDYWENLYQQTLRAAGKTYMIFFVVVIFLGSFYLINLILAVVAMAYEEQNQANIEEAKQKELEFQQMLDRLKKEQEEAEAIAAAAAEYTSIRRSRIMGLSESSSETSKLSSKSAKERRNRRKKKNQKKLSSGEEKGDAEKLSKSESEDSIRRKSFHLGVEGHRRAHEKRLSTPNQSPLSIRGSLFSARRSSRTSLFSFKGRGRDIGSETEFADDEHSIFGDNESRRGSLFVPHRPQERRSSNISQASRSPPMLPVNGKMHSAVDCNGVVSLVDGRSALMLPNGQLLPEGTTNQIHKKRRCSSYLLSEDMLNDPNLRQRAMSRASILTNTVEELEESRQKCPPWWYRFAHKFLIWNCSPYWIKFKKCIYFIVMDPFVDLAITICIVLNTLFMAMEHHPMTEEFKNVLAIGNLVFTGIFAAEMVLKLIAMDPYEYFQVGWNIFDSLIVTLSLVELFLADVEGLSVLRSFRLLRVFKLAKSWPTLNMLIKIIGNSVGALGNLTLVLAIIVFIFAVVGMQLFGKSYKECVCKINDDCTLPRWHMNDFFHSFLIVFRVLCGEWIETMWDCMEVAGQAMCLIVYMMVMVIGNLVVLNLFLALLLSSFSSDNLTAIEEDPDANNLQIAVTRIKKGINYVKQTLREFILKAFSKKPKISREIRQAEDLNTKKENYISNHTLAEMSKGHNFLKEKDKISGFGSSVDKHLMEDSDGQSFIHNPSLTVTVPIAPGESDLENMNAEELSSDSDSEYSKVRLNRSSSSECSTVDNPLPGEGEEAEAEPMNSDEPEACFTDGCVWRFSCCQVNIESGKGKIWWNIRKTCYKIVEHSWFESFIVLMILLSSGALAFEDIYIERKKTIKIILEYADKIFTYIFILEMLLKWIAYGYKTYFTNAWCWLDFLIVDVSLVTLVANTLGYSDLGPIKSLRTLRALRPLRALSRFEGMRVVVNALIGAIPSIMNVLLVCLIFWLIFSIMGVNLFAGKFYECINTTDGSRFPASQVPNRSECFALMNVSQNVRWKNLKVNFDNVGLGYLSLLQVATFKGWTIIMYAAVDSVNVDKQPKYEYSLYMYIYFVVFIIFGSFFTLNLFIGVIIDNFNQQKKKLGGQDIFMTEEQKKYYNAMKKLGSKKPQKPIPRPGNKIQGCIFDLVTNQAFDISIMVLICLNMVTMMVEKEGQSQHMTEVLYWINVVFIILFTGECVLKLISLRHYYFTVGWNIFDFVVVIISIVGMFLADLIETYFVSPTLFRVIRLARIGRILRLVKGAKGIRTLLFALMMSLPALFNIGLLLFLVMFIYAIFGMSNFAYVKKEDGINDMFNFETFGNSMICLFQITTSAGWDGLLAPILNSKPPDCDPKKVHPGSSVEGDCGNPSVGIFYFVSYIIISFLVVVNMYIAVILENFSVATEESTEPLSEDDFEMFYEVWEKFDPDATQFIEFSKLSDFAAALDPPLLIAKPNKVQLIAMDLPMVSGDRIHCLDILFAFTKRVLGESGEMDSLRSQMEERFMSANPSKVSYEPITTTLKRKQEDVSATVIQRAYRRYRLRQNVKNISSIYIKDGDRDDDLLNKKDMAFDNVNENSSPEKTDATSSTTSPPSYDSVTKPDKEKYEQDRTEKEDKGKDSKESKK

The assay addresses hNav1.7 (Homo sapiens (Human), UniProt Q15858). In words: Patch voltage clamp electrophysiology (EP), Syncropatch 384PE, CHO cells stably expressing Nav1.7. It counts as cell-based. The settings on record: holding potential −50 mV, 7.5 min compound incubation, read-out: EP_SP hNav1.7 EVO IC50. From the text:
Example 64c. Electrophysiological Assay (EP) (In Vitro Assay)
Patch voltage clamp electrophysiology allows for the direct measurement and quantification of block of voltage-gated sodium channels (NaV's), and allows the determination of the time- and voltage-dependence of block which has been interpreted as differential binding to the resting, open, and inactivated states of the sodium channel (Hille, B., Journal of General Physiology (1977), 69: 497-515).
The following voltage clamp electrophysiology studies are performed on representative compounds using cells heterologously expressing Nav1.7 or Nav1.5 channels. cDNAs for Nav1.7 (NM_002977) and Nav1.5 (AC137587) are stably expressed in Chinese Hamstr Ovary (CHO) cells and CHL (Chinese Hamster Lung) cells respectively. Sodium currents are measured in the whole-cell configuration using Syncropatch 384PE (Nanlon Technologies, Germany). 1NPC®-384 chips with custom medium resistance and single hole mode are used. Internal solution consists of (in mM): […], 10 CsCl, 20 EGTA, and 10 Hepes (pH adjusted to 7.2); and external solution contains (in mM): 60 NMDG, 80 NaCl, 4 KCl, 1 MgCl2, 2 CaCl2, 2 D-Glucose monohydrate, 10 Hepes (pH adjusted to 7.4 with NaOH).
After system flushing, testing compounds are dissolved in external solution containing 0.1% Pluronic F-127. The chip is moved into the measuring head and the instrument primes the chip with external and internal solutions. 10 μl cells are added to the chip from a cell hotel, and a negative pressure of −50 mBar is applied to form a seal. Following treatment with seal enhancer solution and wash-off with external solution, negative pressure of −250 mbar is applied for 1 second to achieve the whole-cell configuration, followed by three washing steps in external solution. 20 μl of compounds is added to 40 μl in each well (1:3 dilution of compounds), and after mixing, 20 μl is removed so the volume is retained at 40 ul. After approximately 13 minutes recordings, 20 μl/well of 2 uM TTX, or 333 uM Tetracaine (for […]) is added to achieve full block.
For voltage protocol, an holding potential of −50 mV is applied during the whole experiment. A depolarizing step is applied to −10 mV for 10 ms, followed by a hyperpolarization step to −150 mV for 20 ms to allow channel recovery from inactivation. A second depolarizing step is applied from −150 mV to −10 mV for 10 ms, where currents are measured to derive blocking effects of compounds. Inhibition is determined based on 7.5 min of compound incubation.
For orientation: Patch clamp records ionic current or voltage across a cell membrane.
Consider `Cc1nc(O[C@H]2CC[C@H](c3ccc(Cl)c(C(F)(F)F)c3)C[C@@H]2N(C)C)ccc1S(=O)(=O)Nc1ccncn1` [Example 36, 6-(((1S,2S,4S)-4-(4-chloro-3-(trifluoromethyl)phenyl)-2-(dimethylamino)cyclohexyl)oxy)-2-methyl-N-(pyrimidin-4-yl)pyridine-3-sulfonamide], for which the IC50 is 0.247 nM.

With `CN(C)[C@H]1C[C@@H](c2cccc(C(F)(F)F)c2)CC[C@@H]1Oc1ccc(S(=O)(=O)Nc2ccncn2)c(Cl)n1` [Example 22, 2-Chloro-6-(((1S,2S,4S)-2-(dimethylamino)-4-(3-(trifluoromethyl)phenyl)cyclohexyl)oxy)-N-(pyrimidin-4-yl)pyridine-3-sulfonamide], the IC50 is 2.21 nM.

`CN(C)[C@H]1C[C@@H](c2cccc(C(F)(F)F)c2)CC[C@@H]1Oc1ccc(S(=O)(=O)Nc2ccncn2)cn1` [Example 1, 6-(((1S,2S,4S)-2-(Dimethylamino)-4-(3-(trifluoromethyl)phenyl)cyclohexyl)oxy)-N-(pyrimidin-4-yl)pyridine-3-sulfonamide]: the IC50 was 0.9 nM.

For `CN(C)[C@H]1C[C@@H](c2ccc(Cl)c(C(F)(F)F)c2)CC[C@@H]1Nc1ccc(S(=O)(=O)Nc2ccncn2)cn1` [Example 11, 6-(((1S,2S,4S)-4-(4-chloro-3-(trifluoromethyl)phenyl)-2-(dimethylamino)cyclohexyl)amino)-N-(pyrimidin-4-yl)pyridine-3-sulfonamide formate], the IC50 is 1.07 nM.

As to `O=S(=O)(Nc1ccncn1)c1ccc(O[C@H]2CC[C@H](c3cccc(C(F)(F)F)c3)C[C@@H]2N2CCCC2)nc1` [Example 17, N-(pyrimidin-4-yl)-6-(((1S,2S,4S)-2-(pyrrolidin-1-yl)-4-(3-(trifluoromethyl)phenyl)cyclohexyl)oxy)-pyridine-3-sulfonamide formate], the IC50 stood at 0.602 nM.

For `CN(C)[C@H]1C[C@@H](c2cccc(C(F)(F)F)c2)CC[C@@H]1Oc1ncc(S(=O)(=O)Nc2ccncn2)cc1C#N` [Example 6, 5-Cyano-6-(((1S,2S,4S)-2-(dimethylamino)-4-(3-(trifluoromethyl)phenyl)cyclohexyl)oxy)-N-(pyrimidin-4-yl)pyridine-3-sulfonamide formate], the IC50 stood at 3.51 nM.

On to `Cc1nc(O[C@H]2CC[C@H](c3cccc(C(F)(F)F)c3C)C[C@@H]2N(C)C)ccc1S(=O)(=O)Nc1ccncn1` [Example 60, 6-(((1S,2S,4S)-2-(dimethyl-amino)-4-(2-methyl-3-(trifluoromethyl)phenyl)-cyclohexyl)oxy)-2-methyl-N-(pyrimidin-4-yl)pyridine-3-sulfonamide], for which the half-inhibitory concentration (IC50) amounted to 0.909 nM.

Consider `CN(C)[C@H]1C[C@@H](c2cccc(C(F)(F)F)c2)CC[C@@H]1Oc1ncc(S(=O)(=O)Nc2ccncn2)cc1Cl` [Example 3, 5-Chloro-6-(((1S,2S,4S)-2-(dimethylamino)-4-(3-(trifluoromethyl)phenyl)cyclohexyl)oxy)-N-(pyrimidin-4-yl)pyridine-3-sulfonamide], for which the IC50 is 2.21 nM.

In the case of `CN(C)[C@H]1C[C@@H](c2cccc(C(F)(F)F)c2)CC[C@@H]1Oc1ncc(S(=O)(=O)Nc2ccncn2)cc1F` [Example 21, 6-(((1S,2S,4S)-2-(Dimethylamino)-4-(3-(trifluoromethyl)phenyl)cyclohexyl)oxy)-5-fluoro-N-(pyrimidin-4-yl)pyridine-3-sulfonamide], the IC50 was found to be 0.427 nM.

`O=S(=O)(Nc1ccncn1)c1ccc(N[C@H]2CC[C@H](c3cccc(C(F)(F)F)c3)C[C@@H]2N2CCCC2)nc1` [Example 16, N-(pyrimidin-4-yl)-6-(((1S,2S,4S)-2-(pyrrolidin-1-yl)-4-(3-(trifluoromethyl)phenyl)cyclohexyl)-amino)pyridine-3-sulfonamide formate]: the IC50 was determined as 2.79 nM.

With `CN(C)[C@H]1C[C@@H](c2cc(C(F)(F)F)ccc2F)CC[C@@H]1Oc1ccc(S(=O)(=O)Nc2ccncn2)c(Cl)n1` [Example 44, 2-Chloro-6-(((1S,2S,4S)-2-(dimethylamino)-4-(2-fluoro-5-(trifluoromethyl)phenyl)-cyclohexyl)oxy)-N-(pyrimidin-4-yl)pyridine-3-sulfonamide formate], the IC50 came out at 1.81 nM.

Regarding `Cc1cc(S(=O)(=O)Nc2ccncn2)cnc1O[C@H]1CC[C@H](c2cccc(C(F)(F)F)c2)C[C@@H]1N(C)C` [Example 15, 6-(((1S,2S,4S)-2-(Dimethylamino)-4-(3-(trifluoromethyl)phenyl)cyclohexyl)oxy)-5-methyl-N-(pyrimidin-4-yl)pyridine-3-sulfonamide], the IC50 turned out to be 4.23 nM.

Take `CN(C)[C@H]1C[C@@H](c2ccc(Cl)c(C(F)(F)F)c2)CC[C@@H]1Oc1ccc(S(=O)(=O)Nc2ccncn2)cn1` [Example 12, 6-(((1S,2S,4S)-4-(4-chloro-3-(trifluoromethyl)phenyl)-2-(dimethylamino)cyclohexyl)oxy)-N-(pyrimidin-4-yl)pyridine-3-sulfonamide formate]: the IC50 was 0.66 nM.

`Cc1nc(O[C@H]2CC[C@H](c3cc(C(F)(F)F)ccc3Cl)C[C@@H]2N(C)C)ccc1S(=O)(=O)Nc1ccncn1` [Example 38, 6-(((1S,2S,4S)-4-(2-chloro-5-(trifluoromethyl)phenyl)-2-(dimethylamino)cyclohexyl)oxy)-2-methyl-N-(pyrimidin-4-yl)pyridine-3-sulfonamide]: the IC50 worked out at 0.409 nM.

Take `O=S(=O)(Nc1ccncn1)c1ccc(O[C@H]2CC[C@H](c3cccc(OC(F)(F)F)c3)C[C@@H]2N2CCCC2)nc1` [Example 10, N-(pyrimidin-4-yl)-6-(((1S,2S,4S)-2-(pyrrolidin-1-yl)-4-(3-(trifluoromethoxy)phenyl)cyclohexyl)oxy)-pyridine-3-sulfonamide]: the IC50 is 5.62 nM.

Regarding `Cc1nc(O[C@H]2CC[C@H](c3cccc(C(F)(F)F)c3)C[C@@H]2N(C)C)ccc1S(=O)(=O)Nc1ccncn1` [Example 23, 6-(((1S,2S,4S)-2-(Dimethylamino)-4-(3-(trifluoromethyl)phenyl)cyclohexyl)oxy)-2-methyl-N-(pyrimidin-4-yl)pyridine-3-sulfonamide formate], the IC50 was determined as 0.765 nM.

Consider `Cc1nc(O[C@H]2CC[C@H](c3cc(Cl)ccc3Cl)C[C@@H]2N(C)C)ccc1S(=O)(=O)Nc1ccncn1` [Example 39, 6-(((1S,2S,4S)-4-(2,5-dichlorophenyl)-2-(dimethylamino)cyclohexyl)oxy)-2-methyl-N-(pyrimidin-4-yl)pyridine-3-sulfonamide formate], for which the IC50 was 0.645 nM.

Take `CN(C)[C@H]1C[C@@H](c2cccc(OC(F)(F)F)c2)CC[C@@H]1Oc1ncc(S(=O)(=O)Nc2ccncn2)cc1Cl` [Example 13, 5-chloro-6-(((1S,2S,4S)-2-(dimethylamino)-4-(3-(trifluoromethoxy)phenyl)cyclohexyl)oxy)-N-(pyrimidin-4-yl)pyridine-3-sulfonamide]: the IC50 stood at 1.55 nM.

As to `Cc1nc(O[C@H]2CC[C@H](c3cccc(CC(F)(F)F)c3)C[C@@H]2N(C)C)ccc1S(=O)(=O)Nc1ccncn1` [Example 59, 6-(((1S,2S,4S)-2-(dimethyl-amino)-4-(3-(2,2,2-trifluoro-ethyl)phenyl)-cyclohexyl)-oxy)-2-methyl-N-(pyrimidin-4-yl)pyridine-3-sulfonamide], the IC50 was found to be 0.942 nM.

Regarding `CN(C)[C@H]1C[C@@H](c2cccc(C(F)(F)F)c2)CC[C@@H]1Nc1ncc(S(=O)(=O)Nc2ccncn2)cc1Cl` [Example 4, 5-Chloro-6-(((1S,2S,4S)-2-(dimethylamino)-4-(3-(trifluoromethyl)phenyl)cyclohexyl)amino)-N-(pyrimidin-4-yl)pyridine-3-sulfonamide], the IC50 is 0.765 nM.

For `COc1cc(S(=O)(=O)Nc2ccncn2)cnc1O[C@H]1CC[C@H](c2cccc(C(F)(F)F)c2)C[C@@H]1N(C)C` [Example 61, 6-(((1S,2S,4S)-2-(dimethyl-amino)-4-(3-(trifluoromethyl)-phenyl)cyclohexyl)oxy)-5-methoxy-N-(pyrimidin-4-yl)pyridine-3-sulfonamide formate], the IC50 is 10.7 nM.

`CN(C)[C@H]1C[C@@H](c2cccc(C(F)(F)F)c2)CC[C@@H]1Oc1ncc(S(=O)(=O)Nc2ccncn2)cc1C(F)(F)F` [Example 14, 6-(((1S,2S,4S)-2-(dimethylamino)-4-(3-(trifluoromethyl)phenyl)cyclohexyl)oxy)-N-(pyrimidin-4-yl)-5-(trifluoromethyl)pyridine-3-sulfonamide]: the IC50 was determined as 5.08 nM.
